From patent US10905658B2, “Methods and compositions for detecting hematopoietic and lymphoid tissue cancer cells” (WAYNE STATE UNIVERSITY, priority 2016, dated 2021)

Experiments:
B-NHL cell lines [1] = assay: Treatment of B-NHL cell lines with alkoxyamines (cell killing); format: cell-based; conditions: for killing of a B-NHL cell line (cytotoxicity): comparison of alkoxyamines AA3 through AA7, FIG. 17
APE-1 = assay: AP endonuclease activity assay; format: biochemical, mammalian; conditions: for protection of AP sites against cleavage by APE-1: alkoxyamine reaction at pH 5
Description: The cleavage activity of AP endonuclease APE-1 (1 unit, New England Biolabs) was assayed using a 6-FAM labeled oligomer (4 pmol) containing a single uracil. The uracil was excised using UDG to create an AP site and the AP site was labeled with an alkoxyamine as described above. The APE-1 reaction was per-formed in the reaction buffer (50 mM potassium acetate, 20 mM Tris-acetate, 10 mM magnesium acetate, 1 mM DTT, pH 7.9) at 37° C. for 1 h. DNA products were stabilized by incubation with NaBH4 and analyzed by gel electrophoresis as described above.

B-NHL cell lines [2] = assay: Treatment of B-NHL cell lines with alkoxyamines (cell killing); format: cell-based; conditions: for effect on cell growth / cell death: B-NHL cells; for cell death: even at 10 mM
Description: A 24 hr treatment with 1 mM AA3 killed greater than 40% cells in each culture and at 10 mM concentration, >70% cells were killed (FIG. 11). […] Therefore, AA3 cytocidal to B-NHL cells while MX and ARP are only cytostatic.

AP sites in DNA = assay: AP site labeling reaction on synthetic oligomer (gel shift, click reaction); format: biochemical; conditions: for product formation: pH 7
Description: A 6-carboxyfluorescein-(6-FAM-) labeled oligonucleotide U-17-mer (5-6-FAM-ATTATTAUCCATTTATT-3′, […]) was used for the AP site labeling reaction. The oligomer (4 pmol) was incubated with E. coli uracil DNA glycosylase (UDG, 1 unit, New England Labs) at 37° C. for 30 min in reaction buffer containing 20 mM Tris-HCl (pH 8.0), 1 mM DTT and 1 mM EDTA to create AP site containing DNA. The alkoxyamine [methoxyamine, MX (Sigma-Aldrich); aldehyde reactive probe, ARP (Dojindo Laboratories) or AA3] was added into the oligomer solution at indicated concentrations, and incubated at 37° C. for another 30 min. In some experiments, the pH of the solution was adjusted with HCl or NaOH solution following removal of uracil and the pH was confirmed using pH paper. Following the reaction of alkoxyamine, unlabeled AP sites were reduced by the addition of NaBH4 (Sigma-Aldrich) to 100 mM and further incubation for 5 min. If this step was omitted, we observed significant degradation of the DNA. The reactions were stopped by the addition of formamide, loading dye and heating to 95° C. for5 min. The DNAs were electrophoresed in 20% polyacrylamide gels containing 7 M urea and scanned using a Typhoon 9210 phosphorimager (GE Healthcare). Product bands in images were quantified using ImageQuant software. In experiments involving competition between alkoxyamines, AP site containing DNA was reacted with the first alkoxyamine at 37° C. for 30 min. This was followed by the addition of the second alkoxyamine and incubation for an additional 30 min. The reactions were stopped and the products were analyzed as described above.
Biotin azide or Cy5 azide (Lumiprobe) was added to a solution of AA3-linked 17-mer to 0.5 mM followed by the addition of a freshly prepared solution of CuBr/TBTA (1:3 in DMSO/t-BuOH 3:1, 0.5 mM, Sigma-Aldrich). The mixture was shaken at 45° C. for 1 h. The DNAs were electrophoresed and analyzed as described above.

HeLa cells = assay: Killing of HeLa cells by MMS combined with MX or AA3 (trypan blue exclusion); format: cell-based, human
Description: Methyl methanesulfonate (MMS, Sigma-Aldrich) was diluted in phosphate buffered saline. MX or AA3 was dissolved in sterile water, and the pH was adjusted to 7 using NaOH solution. The solutions of all the chemicals were freshly prepared for each cytotoxicity experiment. HeLa cells were seeded in 48-well tissue culture plates at 3×10^4 to 6×10^4 cell/mL and grown overnight in DMEM with 10% fetal bovine serum (HyClone). Cells were treated with MMS or as a combination of MMS with MX or AA3 at indicated concentrations and harvested after 24 h. The viability of the cells was assessed via trypan blue (HyClone) exclusion assay performed using TC20 Automated Cell Counter (Bio-Rad Laboratories).

Row | Structure (SMILES) | killing of a B-NHL cell line (cytotoxicity) (B-NHL cell lines [1]) | protection of AP sites against cleavage by APE-1 (APE-1) [%] | cytocidal or cytostatic to B-NHL cells (B-NHL cell lines [2]) | effect on cell growth (B-NHL cell lines [2]) | cell death (B-NHL cell lines [2]) | other results
1 | C#CCCON [AA5, O-(but-3-yn-1-yl)hydroxylamine] | killed these cells | – | – | – | – | effectiveness in killing relative to AA3 (B-NHL cell lines [1]; a B-NHL cell line): somewhat less effective
2 | C=CCON [AA7, O-allylhydroxylamine] | cytotoxic | – | – | – | – | –
3 | NOCCC(=O)NNC(=O)CCCC[C@@H]1SC[C@@H]2NC(=O)N[C@@H]21 [ARP, N′-(3-(aminooxy)propanoyl)-5-((3aS,4S,6aR)-2-oxohexahydro-H-thieno[3,4-d]imidazol-4-yl)pentanehydrazide] | – | 74 | cytostatic | temporary pause in cell growth | did not result in cell death | DNA cleaved by APE-1 (APE-1; AP sites reacted with alkoxyamine at pH 7): about 90%; substrate converted to product (AP sites in DNA; 0.2 μM oligomer, 5 mM ARP, pH 7 or 8): < 20%; product formation (AP sites in DNA; 5 mM): 13%; product formation (AP sites in DNA; 10 mM): 20%
4 | CON [MX, methoxyamine] | – | ~100 | cytostatic | temporary pause in cell growth | did not result in cell death | protection of AP sites against APE-1 (APE-1; alkoxyamine reaction at pH 7): protected an overwhelming majority of AP sites; enhancement of killing by MMS (HeLa cells; 10 mM with MMS, six independent cultures): did enhance killing by MMS
5 | COS(C)(=O)=O [MMS, Methyl methanesulfonate] | – | – | – | – | – | loss of viability (HeLa cells; MMS alone, 50 µM, after one day): very little loss of viability
6 | CCCON [AA4, O-(n-propyl)hydroxylamine] | – | – | – | – | – | killing of a B-NHL cell line (B-NHL cell lines [1]; even at 10 mM, FIG. 17): did not significantly kill the cells
